Test results as given in article PMC4843002, “Identification of pyrazolopyridazinones as PDEδ inhibitors” (Nature Communications, 2016).

Assays:
PANC-1 cells = type: cell-based
Procedure: (§1) RTCA was performed using 16-well E-plates on the Dual Plate xCELLigence instrument (Roche Applied Science, Indianapolis, IN). This system measures a dimensionless parameter called cell index, which evaluates the ionic environment at an electrode/solution interface and integrates information on cell number. Depending on the cell line 5 × 10^3–1 × 10^4 cells were plated in each well of the 16-well plates in 200 μl of cell culture medium. After seeding, cells were allowed to settle for 30 min at room temperature before being inserted into the xCELLigence instrument in a humidified incubator at 37 °C with 10% CO2. For RTCA experiments assaying cells stably expressing the inducible shRNA transgene, cells were seeded onto the E-plates in medium supplemented with 200 ng ml^−1 doxycycline. For RTCA experiments, the cells were treated with Deltarasin or Deltazinone 1 after reaching a steady growth (24 h/48 h). The small-molecule inhibitors were added at indicated time points and in the indicated concentrations. […] Continuous impedance measurements were then monitored every 15 min for up to 200 h. All assays were performed in duplicates. The cell index was normalized to 1 at the time point of drug administration. […]

BxPC-3 cells = type: cell-based
Procedure: as §1

D3 (h) = biological target: T1, D3 (h) (Homo sapiens, UniProt P35462); assay: Cerep binding, antagonist radioligand; conditions: read-out: % Inhibition of Control Specific Binding
T1 construct: purchased Eurofins Pharma Discovery Services (CEREP diversity panel)

[1] = test system: COMT (catechol-O-methyl transferase); assay: Cerep enzyme and cell-based assays; type: biochemical; conditions: 5 µM
[2] = biological target: T2, N neuronal alpha 4beta 2 (h) (Homo sapiens, UniProt P17787+P43681); assay: Cerep binding, agonist radioligand; conditions: read-out: % Inhibition of Control Specific Binding
T2 construct: purchased Eurofins Pharma Discovery Services (CEREP diversity panel)
T2 sequence (P43681 29-627 limits assumed): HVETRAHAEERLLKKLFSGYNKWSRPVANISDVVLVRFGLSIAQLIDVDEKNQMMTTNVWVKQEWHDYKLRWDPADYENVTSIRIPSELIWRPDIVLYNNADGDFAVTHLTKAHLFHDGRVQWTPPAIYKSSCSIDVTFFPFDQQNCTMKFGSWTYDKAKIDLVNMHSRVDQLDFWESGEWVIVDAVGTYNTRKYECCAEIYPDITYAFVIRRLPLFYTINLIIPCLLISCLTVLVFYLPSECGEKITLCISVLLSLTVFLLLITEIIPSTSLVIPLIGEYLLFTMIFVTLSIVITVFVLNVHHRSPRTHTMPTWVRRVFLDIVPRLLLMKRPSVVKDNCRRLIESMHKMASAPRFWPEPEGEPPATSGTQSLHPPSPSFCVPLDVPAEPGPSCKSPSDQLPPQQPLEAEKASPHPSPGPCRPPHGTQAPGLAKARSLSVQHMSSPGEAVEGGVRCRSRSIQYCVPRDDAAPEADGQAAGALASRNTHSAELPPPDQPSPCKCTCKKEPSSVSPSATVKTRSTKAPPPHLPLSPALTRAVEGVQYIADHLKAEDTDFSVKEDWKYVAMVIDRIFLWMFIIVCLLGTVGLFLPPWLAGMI
T2 sequence (P17787 26-502): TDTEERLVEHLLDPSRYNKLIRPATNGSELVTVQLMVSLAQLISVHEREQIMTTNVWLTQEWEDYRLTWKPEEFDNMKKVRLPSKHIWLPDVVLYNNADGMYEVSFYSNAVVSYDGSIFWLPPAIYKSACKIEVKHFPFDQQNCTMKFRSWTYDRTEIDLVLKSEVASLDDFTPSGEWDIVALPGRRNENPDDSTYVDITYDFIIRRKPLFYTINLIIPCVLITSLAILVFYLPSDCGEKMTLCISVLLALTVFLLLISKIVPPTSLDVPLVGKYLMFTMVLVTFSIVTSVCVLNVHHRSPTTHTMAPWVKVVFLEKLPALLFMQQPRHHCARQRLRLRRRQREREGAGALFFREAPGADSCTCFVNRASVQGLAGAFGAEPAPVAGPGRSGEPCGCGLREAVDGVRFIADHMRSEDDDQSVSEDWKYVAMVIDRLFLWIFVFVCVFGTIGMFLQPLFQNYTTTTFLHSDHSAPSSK

MT1 (ML1A) (h) = biological target: T3, MT1 (ML1A) (h) (Homo sapiens, UniProt P48039); assay: Cerep binding, agonist radioligand; conditions: read-out: % Inhibition of Control Specific Binding
T3 construct: purchased Eurofins Pharma Discovery Services (CEREP diversity panel)
T3 sequence (P48039 whole entry): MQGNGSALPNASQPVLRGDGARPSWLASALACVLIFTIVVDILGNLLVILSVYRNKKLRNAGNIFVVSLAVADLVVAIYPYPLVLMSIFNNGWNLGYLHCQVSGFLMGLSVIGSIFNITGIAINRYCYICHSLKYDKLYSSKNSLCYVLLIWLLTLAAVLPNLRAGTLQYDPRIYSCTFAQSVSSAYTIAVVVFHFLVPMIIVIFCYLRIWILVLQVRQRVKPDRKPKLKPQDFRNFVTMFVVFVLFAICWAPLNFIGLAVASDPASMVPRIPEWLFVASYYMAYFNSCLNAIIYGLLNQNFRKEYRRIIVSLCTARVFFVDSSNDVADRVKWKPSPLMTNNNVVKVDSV

TRH1 (h) = biological target: T4, TRH1 (h) (Homo sapiens, UniProt P34981); assay: Cerep binding, agonist radioligand; conditions: read-out: % Inhibition of Control Specific Binding
T4 construct: purchased Eurofins Pharma Discovery Services (CEREP diversity panel)

S6P phosphorylation = assay: western blot, S6P phosphorylation in PANC-1
Procedure: (§2) To examine whether PDEδ inhibition by Deltarasin and Deltazinone 1 downregulates the signal transduction via these pathways, we examined the phosphorylation of extracellular signal regulated kinase (Erk) and S6 Ribosomal Protein (S6P) in the oncogenic KRas-dependent Panc-Tu-1 and KRas-independent PANC-1 cells. […] Cells were lysed with RIPA-buffer (20 mM Tris pH 7.5, 150 mM NaCl, 0.5 mM Na2 EDTA, 1 % sodium deoxycholate, 0.1% sodium dodecyl sulfate, 1% IGEPAL supplemented with Complete Mini EDTA-free protease inhibitor (Roche Applied Science) and 1% phosphatase inhibitor cocktail 2 and 3 (P5726 and P0044, Sigma Aldrich), scraped off after 5 min on ice and centrifuged at 14,000g for 20 min at 4 °C. SDS–polyacrylamide gel electrophoresis was carried out with 10–25 μg of whole-cell lysate from each sample. The gels were blotted onto polyvinylidene difluoride membrane (Millipore) and blocked for 1 h at room temperature. […] Blots were scanned on a LI-COR Odyssey imaging system.
(§3) Western blots were quantified using ImageJ. The background of the blots was subtracted by applying the rolling ball subtraction with a radius of 50 pixels. Afterwards the integrated intensity of the bands was measured.

alpha 2 (non-selective) = assay: Cerep binding, antagonist radioligand; conditions: 5 µM
[3] = test system: guanylyl cyclase (h) (activator effect); assay: Cerep enzyme and cell-based assays; type: biochemical, human; conditions: 5 µM
H3 (h) = biological target: T5, H3 (h) (Homo sapiens, UniProt Q9Y5N1); assay: Cerep binding, agonist radioligand; conditions: read-out: % Inhibition of Control Specific Binding
T5 construct: purchased Eurofins Pharma Discovery Services (CEREP diversity panel)
T5 sequence (Q9Y5N1 whole entry): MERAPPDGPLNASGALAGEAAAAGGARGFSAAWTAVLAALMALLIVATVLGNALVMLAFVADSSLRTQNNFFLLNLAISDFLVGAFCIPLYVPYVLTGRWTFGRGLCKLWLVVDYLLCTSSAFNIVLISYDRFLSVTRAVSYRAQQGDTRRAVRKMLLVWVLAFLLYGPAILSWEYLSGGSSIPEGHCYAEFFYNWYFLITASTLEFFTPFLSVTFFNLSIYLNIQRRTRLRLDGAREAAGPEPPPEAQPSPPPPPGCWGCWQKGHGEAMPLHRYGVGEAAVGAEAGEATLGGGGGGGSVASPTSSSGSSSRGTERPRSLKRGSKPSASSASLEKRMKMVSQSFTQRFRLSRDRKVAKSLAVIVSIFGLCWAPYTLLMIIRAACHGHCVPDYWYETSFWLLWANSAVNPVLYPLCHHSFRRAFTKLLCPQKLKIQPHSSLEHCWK

Na+ channel (site 2) = assay: Cerep binding, antagonist radioligand; conditions: 5 µM
PKCalpha (h) = biological target: T6, PKCalpha (h) (Homo sapiens, UniProt P17252); assay: Cerep enzyme and cell-based assays; type: biochemical; conditions: read-out: % Inhibition of Control Values
T6 construct: Eurofins Pharma Discovery Services (CEREP diversity panel, outsourced assay)

A1 (h) = biological target: T7, A1 (h) (Homo sapiens, UniProt P30542); assay: Cerep binding, antagonist radioligand; conditions: read-out: % Inhibition of Control Specific Binding
T7 construct: purchased Eurofins Pharma Discovery Services (CEREP diversity panel)
T7 sequence (P30542 whole entry): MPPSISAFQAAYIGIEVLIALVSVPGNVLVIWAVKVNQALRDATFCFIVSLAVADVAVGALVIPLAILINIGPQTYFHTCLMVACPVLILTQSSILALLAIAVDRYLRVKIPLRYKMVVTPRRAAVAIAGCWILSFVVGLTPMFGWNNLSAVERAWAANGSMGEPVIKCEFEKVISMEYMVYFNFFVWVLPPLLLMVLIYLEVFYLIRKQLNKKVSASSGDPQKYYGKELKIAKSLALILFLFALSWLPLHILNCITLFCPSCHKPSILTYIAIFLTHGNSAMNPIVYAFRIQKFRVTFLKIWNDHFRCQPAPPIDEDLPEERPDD

GR (h) = biological target: T8, GR (h) (Homo sapiens, UniProt P04150); assay: Cerep binding, agonist radioligand; conditions: read-out: % Inhibition of Control Specific Binding
T8 construct: purchased Eurofins Pharma Discovery Services (CEREP diversity panel)

PDE5 (h) (non-selective) = biological target: T9, PDE5 (h) (non-selective) (Homo sapiens, UniProt O76074); assay: Cerep enzyme and cell-based assays; type: biochemical; conditions: read-out: % Inhibition of Control Values
T9 construct: Eurofins Pharma Discovery Services (CEREP diversity panel, outsourced assay)

ER (non-selective) (h) = assay: Cerep binding, agonist radioligand; set-up: species or system human; conditions: 5 µM
kainate = assay: Cerep binding, agonist radioligand; conditions: 5 µM
KATP channel = assay: Cerep binding, antagonist radioligand; conditions: 5 µM
[4] = test system: Ca2+ channel (L, verapamil site) (phenylalkylamine); assay: Cerep binding, antagonist radioligand; conditions: 5 µM
NK1 (h) = biological target: T10, NK1 (h) (Homo sapiens, UniProt P25103); assay: Cerep binding, agonist radioligand; conditions: read-out: % Inhibition of Control Specific Binding
T10 construct: purchased Eurofins Pharma Discovery Services (CEREP diversity panel)

B2 (h) = biological target: T11, B2 (h) (Homo sapiens, UniProt P30411); assay: Cerep binding, agonist radioligand; conditions: read-out: % Inhibition of Control Specific Binding
T11 construct: purchased Eurofins Pharma Discovery Services (CEREP diversity panel)
T11 sequence (P30411 whole entry): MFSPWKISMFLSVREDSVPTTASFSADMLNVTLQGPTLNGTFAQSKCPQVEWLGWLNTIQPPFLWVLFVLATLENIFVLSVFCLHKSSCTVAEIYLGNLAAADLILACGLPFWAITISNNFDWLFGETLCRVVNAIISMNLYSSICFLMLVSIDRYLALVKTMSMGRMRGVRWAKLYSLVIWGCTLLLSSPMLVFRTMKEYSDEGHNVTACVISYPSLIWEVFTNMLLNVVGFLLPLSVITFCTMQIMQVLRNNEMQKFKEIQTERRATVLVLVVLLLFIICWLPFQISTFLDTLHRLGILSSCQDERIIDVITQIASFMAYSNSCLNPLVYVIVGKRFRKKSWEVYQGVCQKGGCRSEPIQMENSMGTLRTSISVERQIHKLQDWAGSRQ

PR (h) = biological target: T12, PR (h) (Homo sapiens, UniProt P06401); assay: Cerep binding, agonist radioligand; conditions: read-out: % Inhibition of Control Specific Binding
T12 construct: purchased Eurofins Pharma Discovery Services (CEREP diversity panel)
T12 sequence (P06401 whole entry): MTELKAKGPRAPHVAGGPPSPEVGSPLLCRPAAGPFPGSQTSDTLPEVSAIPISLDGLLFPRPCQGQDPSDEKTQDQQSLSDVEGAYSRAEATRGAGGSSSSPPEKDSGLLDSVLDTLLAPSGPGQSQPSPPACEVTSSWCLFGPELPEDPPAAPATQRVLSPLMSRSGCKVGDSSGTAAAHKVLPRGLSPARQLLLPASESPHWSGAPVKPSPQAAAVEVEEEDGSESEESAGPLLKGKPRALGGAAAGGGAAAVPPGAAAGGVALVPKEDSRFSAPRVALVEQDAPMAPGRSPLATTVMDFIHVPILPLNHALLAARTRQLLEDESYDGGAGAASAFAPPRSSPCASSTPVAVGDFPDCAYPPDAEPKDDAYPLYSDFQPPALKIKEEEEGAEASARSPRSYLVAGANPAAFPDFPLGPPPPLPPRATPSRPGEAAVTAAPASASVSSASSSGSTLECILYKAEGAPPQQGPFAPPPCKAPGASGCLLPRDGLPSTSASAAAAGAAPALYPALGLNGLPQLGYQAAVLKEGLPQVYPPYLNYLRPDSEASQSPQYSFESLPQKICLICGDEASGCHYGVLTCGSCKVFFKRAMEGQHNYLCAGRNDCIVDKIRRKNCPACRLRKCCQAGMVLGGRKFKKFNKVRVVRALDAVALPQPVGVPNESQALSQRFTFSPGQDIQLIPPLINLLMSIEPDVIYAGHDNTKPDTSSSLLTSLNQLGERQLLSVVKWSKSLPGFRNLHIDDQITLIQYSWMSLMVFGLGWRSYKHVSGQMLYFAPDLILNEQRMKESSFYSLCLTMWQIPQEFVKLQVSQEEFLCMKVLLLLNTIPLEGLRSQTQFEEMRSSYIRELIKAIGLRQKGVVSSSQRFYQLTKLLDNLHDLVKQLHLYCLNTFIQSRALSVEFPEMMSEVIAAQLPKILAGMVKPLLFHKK

[5] = test system: Ca2+ channel (L, diltiazem site) (benzothiazepines); assay: Cerep binding, antagonist radioligand; conditions: 5 µM
PDE3A (h) = biological target: T13, PDE3A (h) (Homo sapiens, UniProt Q14432); assay: Cerep enzyme and cell-based assays; type: biochemical; conditions: read-out: % Inhibition of Control Values
T13 construct: Eurofins Pharma Discovery Services (CEREP diversity panel, outsourced assay)

V1a (h) = biological target: T14, V1a (h) (Homo sapiens, UniProt P37288); assay: Cerep binding, agonist radioligand; conditions: read-out: % Inhibition of Control Specific Binding
T14 construct: purchased Eurofins Pharma Discovery Services (CEREP diversity panel)

GABA transporter = assay: Cerep binding, antagonist radioligand; conditions: 5 µM
H1 (h) = biological target: T15, H1 (h) (Homo sapiens, UniProt P35367); assay: Cerep binding, antagonist radioligand; conditions: read-out: % Inhibition of Control Specific Binding
T15 construct: purchased Eurofins Pharma Discovery Services (CEREP diversity panel)

CysLT1 (LTD4) (h) = biological target: T16, CysLT1 (LTD4) (h) (Homo sapiens, UniProt Q9Y271); assay: Cerep binding, agonist radioligand; conditions: read-out: % Inhibition of Control Specific Binding
T16 construct: purchased Eurofins Pharma Discovery Services (CEREP diversity panel)

BZD (central) = assay: Cerep binding, agonist radioligand; conditions: 5 µM
ETB (h) = biological target: T17, ETB (h) (Homo sapiens, UniProt P24530); assay: Cerep binding, agonist radioligand; conditions: read-out: % Inhibition of Control Specific Binding
T17 construct: purchased Eurofins Pharma Discovery Services (CEREP diversity panel)
T17 sequence (P24530 27-442): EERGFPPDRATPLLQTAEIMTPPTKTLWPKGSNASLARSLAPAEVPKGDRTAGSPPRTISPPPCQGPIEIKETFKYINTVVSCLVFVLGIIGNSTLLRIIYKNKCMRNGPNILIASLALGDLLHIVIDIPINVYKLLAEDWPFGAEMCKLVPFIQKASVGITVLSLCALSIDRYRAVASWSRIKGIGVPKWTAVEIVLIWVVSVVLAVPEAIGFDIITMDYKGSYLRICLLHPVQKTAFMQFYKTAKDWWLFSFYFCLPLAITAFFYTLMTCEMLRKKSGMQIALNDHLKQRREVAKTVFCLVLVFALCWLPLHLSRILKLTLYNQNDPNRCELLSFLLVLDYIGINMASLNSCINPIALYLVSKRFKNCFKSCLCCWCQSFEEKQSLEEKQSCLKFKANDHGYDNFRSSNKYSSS

CCK1 (CCKA) (h) = biological target: T18, CCK1 (CCKA) (h) (Homo sapiens, UniProt P32238); assay: Cerep binding, agonist radioligand; conditions: read-out: % Inhibition of Control Specific Binding
T18 construct: purchased Eurofins Pharma Discovery Services (CEREP diversity panel)

AMPA = assay: Cerep binding, agonist radioligand; conditions: 5 µM
dopamine transporter (h) = biological target: T19, dopamine transporter (h) (Homo sapiens, UniProt Q01959); assay: Cerep binding, antagonist radioligand; conditions: read-out: % Inhibition of Control Specific Binding
T19 construct: purchased Eurofins Pharma Discovery Services (CEREP diversity panel)
T19 sequence (Q01959 whole entry): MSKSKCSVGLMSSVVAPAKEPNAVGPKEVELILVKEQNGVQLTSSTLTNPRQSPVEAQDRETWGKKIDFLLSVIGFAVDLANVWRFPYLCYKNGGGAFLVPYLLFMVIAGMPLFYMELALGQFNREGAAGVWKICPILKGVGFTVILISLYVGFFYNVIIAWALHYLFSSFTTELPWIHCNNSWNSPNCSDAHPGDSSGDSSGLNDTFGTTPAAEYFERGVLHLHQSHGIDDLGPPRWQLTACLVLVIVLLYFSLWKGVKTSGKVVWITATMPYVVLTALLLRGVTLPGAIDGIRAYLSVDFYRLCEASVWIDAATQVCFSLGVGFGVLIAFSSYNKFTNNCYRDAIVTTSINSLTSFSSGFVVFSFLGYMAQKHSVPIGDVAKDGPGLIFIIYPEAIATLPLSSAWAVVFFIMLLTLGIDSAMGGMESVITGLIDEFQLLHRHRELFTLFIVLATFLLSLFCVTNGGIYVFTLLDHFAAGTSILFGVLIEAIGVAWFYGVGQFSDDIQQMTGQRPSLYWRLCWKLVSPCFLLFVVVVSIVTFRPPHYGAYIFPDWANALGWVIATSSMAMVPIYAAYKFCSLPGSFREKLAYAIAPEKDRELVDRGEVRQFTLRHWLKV

PDE4D2 (h) = biological target: T20, PDE4D2 (h) (Homo sapiens, UniProt Q08499); assay: Cerep enzyme and cell-based assays; type: biochemical; conditions: read-out: % Inhibition of Control Values
T20 construct: Eurofins Pharma Discovery Services (CEREP diversity panel, outsourced assay)

I2 = assay: Cerep binding, antagonist radioligand; conditions: 5 µM
Erk phosphorylation = assay: western blot, Erk phosphorylation in Panc-Tu-I
Procedure: as §2, §3

IP (PGI2) (h) = biological target: T21, IP (PGI2) (h) (Homo sapiens, UniProt P43119); assay: Cerep binding, agonist radioligand; conditions: read-out: % Inhibition of Control Specific Binding
T21 construct: purchased Eurofins Pharma Discovery Services (CEREP diversity panel)
T21 sequence (P43119 whole entry): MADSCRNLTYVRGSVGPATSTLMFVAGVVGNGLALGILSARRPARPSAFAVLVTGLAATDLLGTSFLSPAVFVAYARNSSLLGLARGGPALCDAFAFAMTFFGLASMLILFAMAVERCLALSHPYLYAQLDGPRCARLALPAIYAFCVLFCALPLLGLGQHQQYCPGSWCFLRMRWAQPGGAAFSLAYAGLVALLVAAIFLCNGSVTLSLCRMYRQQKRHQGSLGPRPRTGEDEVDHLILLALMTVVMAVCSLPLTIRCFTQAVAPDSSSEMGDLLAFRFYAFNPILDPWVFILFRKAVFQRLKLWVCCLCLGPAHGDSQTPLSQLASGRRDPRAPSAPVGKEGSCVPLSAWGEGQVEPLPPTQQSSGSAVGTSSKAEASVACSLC

M (non-selective) = assay: Cerep binding, antagonist radioligand; conditions: 5 µM
[6] = 1 h, 5 μM Deltarasin or 20 μM Deltazinone 1, 5 min EGF

| Compound | inhibition at 5 µM (D3 (h)) [%] | % Inhibition of Control Values [1] [%] | inhibition at 5 µM [2] [%] | inhibition at 5 µM (MT1 (ML1A) (h)) [%] | inhibition at 5 µM (TRH1 (h)) [%] | % Inhibition of Control Specific Binding (alpha 2 (non-selective)) [%] | % Inhibition of Control Values [3] [%] | inhibition at 5 µM (H3 (h)) [%] | % Inhibition of Control Specific Binding (Na+ channel (site 2)) [%] | inhibition at 5 µM (PKCalpha (h)) [%] | inhibition at 5 µM (A1 (h)) [%] | inhibition at 5 µM (GR (h)) [%] | inhibition at 5 µM (PDE5 (h) (non-selective)) [%] | % Inhibition of Control Specific Binding (ER (non-selective) (h)) [%] | % Inhibition of Control Specific Binding (kainate) [%] | % Inhibition of Control Specific Binding (KATP channel) [%] | % Inhibition of Control Specific Binding [4] [%] | inhibition at 5 µM (NK1 (h)) [%] | inhibition at 5 µM (B2 (h)) [%] | inhibition at 5 µM (PR (h)) [%] | also measured |
| --- | --- | --- | --- | --- | --- | --- | --- | --- | --- | --- | --- | --- | --- | --- | --- | --- | --- | --- | --- | --- | --- |
| Cc1ccc(-n2nc3c(=O)n(CCCC(=O)NCC(C)c4ccccc4)nc(C)c3c2C)cc1 (stereo not shown) [2k] | 18 | 11 | -8 | 22 | 7 | 3 | 3 | -10 | 4 | 7 | 0 | -9 | 3 | -15 | -6 | 16 | -23 | 3 | -5 | 3 | effect on growth (PANC-1 cells; PANC-1, doses up to 24 μM): little or no growth inhibitory effect; effect on growth (BxPC-3 cells; BxPC-3, doses up to 24 μM): little or no growth inhibitory effect; S6P phosphorylation (S6P phosphorylation; PANC-1, 20 μM, longer incubation times (>3 h)): remained unaffected; % Inhibition of Control Specific Binding [5]: -4%; inhibition at 5 µM (PDE3A (h)): 1%; inhibition at 5 µM (V1a (h)): -4%; % Inhibition of Control Specific Binding (GABA transporter): -1%; inhibition at 5 µM (H1 (h)): 2%; inhibition at 5 µM (CysLT1 (LTD4) (h)): 0%; % Inhibition of Control Specific Binding (BZD (central)): -24%; inhibition at 5 µM (ETB (h)): -12%; inhibition at 5 µM (CCK1 (CCKA) (h)): 22%; % Inhibition of Control Specific Binding (AMPA): 2%; inhibition at 5 µM (dopamine transporter (h)): 17%; inhibition at 5 µM (PDE4D2 (h)): 3%; % Inhibition of Control Specific Binding (I2): 39%; EGF-induced Erk phosphorylation (Erk phosphorylation; 20 μM, longer incubation times (>3 h)): reduced; EGF-induced Erk phosphorylation (Erk phosphorylation; [6]): did not significantly affect; inhibition at 5 µM (IP (PGI2) (h)): -4%; % Inhibition of Control Specific Binding (M (non-selective)): 21% |
| c1ccc(Cn2c(-c3ccc(OC[C@H](C4CCNCC4)n4c(-c5ccccc5)nc5ccccc54)cc3)nc3ccccc32)cc1 [Deltarasin, reference compound] | 93 | 4 | -10 | 28 | 42 | 1 | 0 | -2 | 83 | 66 | 37 | 40 | 92 | -19 | 14 | -10 | 54 | 89 | 10 | 41 | concentration resulting in rapid cell death (unspecific cytotoxicity) (PANC-1 cells; human): above 9 μM; concentration resulting in rapid cell death (unspecific cytotoxicity) (BxPC-3 cells; human): above 9 μM; EGF-induced S6P phosphorylation (S6P phosphorylation; PANC-1, 1 h, 5 μM Deltarasin, 5 min EGF): reduced in both lines; % Inhibition of Control Specific Binding [5]: 61%; inhibition at 5 µM (PDE3A (h)): 11%; inhibition at 5 µM (V1a (h)): 21%; % Inhibition of Control Specific Binding (GABA transporter): 20%; inhibition at 5 µM (H1 (h)): 78%; inhibition at 5 µM (CysLT1 (LTD4) (h)): -5%; % Inhibition of Control Specific Binding (BZD (central)): -17%; inhibition at 5 µM (ETB (h)): 15%; inhibition at 5 µM (CCK1 (CCKA) (h)): 58%; % Inhibition of Control Specific Binding (AMPA): 17%; inhibition at 5 µM (dopamine transporter (h)): 65%; inhibition at 5 µM (PDE4D2 (h)): 7%; % Inhibition of Control Specific Binding (I2): 19%; EGF-induced Erk phosphorylation (Erk phosphorylation; [6]): reduced; inhibition at 5 µM (IP (PGI2) (h)): 8%; % Inhibition of Control Specific Binding (M (non-selective)): 96% |
